Series [1] is described as follows: in vitro. Conditions: human, Caco-2. On the procedure:
(§1) HESS (pH 6.5) was added to a chamber on the apical side of human iPS cell-derived small intestinal epithelial cells and Caco-2 cells seeded on Cell culture insert, HBSS (pH 7.4) was added to a chamber on the basal side, and pre-incubated at 37° C. for 60 minutes. […] A sample was collected from the receiver chamber every 15 minutes. The unchanged substance was measured using UPLC-MS/MS. Fa·Fg in humans was referred from, previous reports (References 1 to 6 below). • Reference 1: Takenaka T, Harada N, Kuze J, Chiba M, Iwao T, Matsunaga T. Human small intestinal epithelial cells differentiated from adult intestinal stem cells as a novel system for predicting oral drug absorption in humans. Drug Metab Dispos. […] Expert Opin Drug Metab Toxicol.

A short description of series [2]: in vitro. Conditions: human. On the procedure: (§2) Human iPS cells (FF-1) were treated with a serum-free medium containing 100 ng/mL activin A for 24 hours to initiate differentiation. […] Thereafter, the cells were cultured in Advanced DMEM/F-12 containing 2% FBS, 1% GlutaMax, 100 units/mL penicillin G, 100 μg/mL streptomycin sulfate, and 250 ng/mL FGF2 for 96 hours to differentiate into small intestine stem cells. The small intestine stem cell-like cells after the treatment with activin A and FGF2 were detached with Aecutase and seeded on GFR Matrigel which was diluted 30-fold with human iPS medium in advance. After seeding, the cells were cultured for 19 to 23 days in Advanced DMEM/F-12 containing 2% FBS, 0.1 mM NEAA, 2 mM L-Glu, 100 units/mL penicillin G, 100 μg/mL streptomycin sulfate, 2% B27 supplement, 1% N2 supplement, 1% HepExtend supplement, 20 ng/mL EGF, and 30 μM Forskolin. From 12 to 16 days before the end of differentiation, differentiation into small intestinal epithelial cells was induced was by adding PD98059 to 20 μM, 5-aza-2′-deoxycytidine (5-aza-2′-dC) to 5 μM, and A-83-01 to 0.5 μM.
as §1

For series [3] the following is noted: cited from earlier work.
For another series, the system named is human iPS cells. The series is described as follows: Marker gene expression (real-time RT-PCR) after induction of differentiation of human iPS cells into intestinal epithelial cells. The format is cell-based. On the procedure: Induction of differentiation of human iPS cells into intestinal epithelial cells was started in a state where undifferentiated colonies of the human iPS cells accounted for about 70% of the culture dish. […] was induced to differentiate into endoderm by culturing for two days in Roswell Park Memorial Institute (RPMI)+Glutamax medium containing 0.5% FBS, 100 ng/mL activin A, 100 units/mL penicillin G, and 100 μg/mL streptomycin and then culturing for one day in RPMI+Glutamax medium, containing 2% FBS, 100 ng/mL activin A, 100 units/ml penicillin G, and 100 μg/mL streptomycin. Then, the cells were cultured in DMEM/F12 containing 2% FBS, 1% Glutamax, and 250 ng/mL FGF2 for 4 days to induce differentiation into intestinal stem cells. After this treatment, Y-27632 (Rho-binding kinase inhibitor) was added so that the concentration was 10 μmol/L, and the cells treated at 37° C. for 60 minutes in a CO2 incubator under the condition of 5% CO2/95% air were treated with actase for detaching. The detached cells were seeded on a 24-well cell culture plate coated with Matrigel which was diluted 30-fold with a human iPS cell culture medium and from which growth factors was removed. […]
(In general: In qPCR the cycle at which signal appears reflects the starting amount.)

Series [4] deals with intestinal epithelial cell-like cells derived from human iPS cells. The series is described as follows: Drug metabolism experiment (CYP3A4 and UGT activity) in intestinal epithelial cell-like cells derived from human iPS cells. Format: cell-based. The conditions noted are these: experiment 4, FF-1, Forskolin instead of 8-Br-cAMP from day 12 (FIG. 10).
Procedure: In experiment 3, the FF-1 strain was cultured for 5 days (day 0 to 5) to induce differentiation into endoderm, 4 days (day 5 to 9) to induce differentiation into intestinal stem cells, and 18 days (day 10 to 28) to induce differentiation into intestinal epithelial cells. In experiment 4, the FF-1 strain was cultured for 7 days (day 0 to 7) to induce differentiation into endoderm, 4 days (day 7 to day 11) to induce differentiation into intestinal stem cells, and 18 days (day 12 to day 30) to induce differentiation into intestinal epithelial cells. […]
After completing the differentiation induction, the differentiated cells were cultured at 37° C. in a culture medium (DMEM/F12 containing 1% Glutamax, 1% NEAA, 1% N2 supplement, 100 units/mL penicillin G, 100 μg/mL streptomycin, and 20 ng/mL EGF) containing 5 μmol/L midazolam and 10 μmol/L 7-hydroxycoumarin, and the culture medium was sampled after 24 hours (experiments 3 and 4) or 2 hours (experiment 5). The metabolic activity was calculated from the amount of 1-hydroxymidazolam or 7-hydroxycoumarin glucuronide in the culture medium, which was measured using a liquid chromatography-mass spectrometer (LC-MS/MS). After completing the metabolic experiment, protein quantification was performed, and the metabolic activity was corrected with the amount of protein.
Another series relates to Caco-2 cells. The series is described as follows: in vitro. On the procedure: as §1
Series [5] relates to human iPS cell-derived small intestinal epithelial cells. The series is described as follows: in vitro. On the procedure:
as §2, §1

Setting [6] is: in humans, from References 1 to 6.

Where two headings read alike, the source gives them in different places.

What is called Papp A→B is how fast a substance crosses the layer from the apical side. For `CCCC(=O)Nc1ccc(OCC(O)CNC(C)C)c(C(C)=O)c1` (stereo not shown) [Acebutolol, acebutolol], the Papp A→B at 60 min in the series “in vitro [1]” was 0.35 ×10⁻⁶ cm/s; in the series “in vitro [2]”, 2.3 ×10⁻⁶ cm/s.

`Cc1cc(=O)n(-c2ccccc2)n1C` [Antipvrine, antipyrine]: in “in vitro [2]”, the Papp A→B at 60 min worked out at 55.6 ×10⁻⁶ cm/s.

Regarding `Cn1c(=O)c2c(ncn2C)n(C)c1=O` [Caffeine, caffeine], the Papp A→B at 60 min in “in vitro [2]” was 52.4 ×10⁻⁶ cm/s.

On to `CCOC(=O)[C@H](CCc1ccccc1)N[C@@H](C)C(=O)N1CCC[C@H]1C(=O)O` [Enalapril, enalapril], for which the Fa · Fg/100 in series [3] (setting [6]) is 0.6. Further, the apical-to-basolateral permeability (Papp A→B) at 60 min came to 0.19 ×10⁻⁶ cm/s in “in vitro [1]” and 1.93 ×10⁻⁶ cm/s in the series “in vitro [2]”.

In the case of `CC[C@H]1OC(=O)[C@H](C)[C@@H](O[C@H]2C[C@@](C)(OC)[C@@H](O)[C@H](C)O2)[C@H](C)[C@@H](O[C@@H]2O[C@H](C)C[C@H](N(C)C)[C@H]2O)[C@](C)(O)C[C@@H](C)C(=O)[C@H](C)[C@@H](O)[C@]1(C)O` [Erythromycin, erythromycin], the figures for the Papp A→B at 60 min in “in vitro [1]” and in “in vitro [2]” were 0.45 ×10⁻⁶ cm/s and 1.24 ×10⁻⁶ cm/s, respectively.

For the compound `C=C[C@@]1(C)CC(=O)[C@]2(O)[C@@]3(C)[C@@H](O)CCC(C)(C)[C@@H]3[C@H](O)[C@H](OC(C)=O)[C@@]2(C)O1` [Forskolin], the “effect on the expressions of CYP3A4 and ABCB1/MDR1” value with human iPS cells (experiment 1, Windy, compared with 8-Br-cAMP) was “drastically exceeded that of 8-Br-cAMP”. Also, the “expression level of CYP3A4 and SGLT1” value in the series on human iPS cells (experiment 2, Windy, Forskolin alone day 8 to 26, vs 8-Br-cAMP and IBMX in combination (FIG. 5)) was “significantly increased”. In addition, the CYP3A4 activity result in series [4] is recorded as “further significant increase”.

As to `NS(=O)(=O)c1cc2c(cc1Cl)NCNS2(=O)=O` [Hydrochlorothiazide, hydrochlorothiazide], the Fa · Fg/100 in series [3] (setting [6]) is 0.67. The Papp A→B at 60 min in the series “in vitro [1]” was 2.44 ×10⁻⁶ cm/s; in the series “in vitro [2]”, 4.4 ×10⁻⁶ cm/s.

For `CN(C)C(=N)N=C(N)N` [Metformin, metformin], in series [3] (setting [6]), the Fa · Fg/100 was 0.71. For the same compound, the Papp A→B at 60 min in “in vitro [1]” stood at 0.52 ×10⁻⁶ cm/s; in “in vitro [2]”, 2.43 ×10⁻⁶ cm/s.

For the compound `Cc1ncc2n1-c1ccc(Cl)cc1C(c1ccccc1F)=NC2` [Midazolam, midazolam], the Fa · Fg/100 in series [3] (setting [6]) was 0.369. Further, the Papp A→B came out at 38.7 ×10⁻⁶ cm/s in the series “in vitro [1]” and 48.3 ×10⁻⁶ cm/s in the series “in vitro [2]”.

Regarding `NC(=O)c1ncn([C@@H]2O[C@H](CO)[C@@H](O)[C@H]2O)n1` [Ribavirin, ribavirin], the Fa · Fg/100 in series [3] (setting [6]) was 0.85. The Papp A→B at 60 min in the series “in vitro [1]” is 0.32 ×10⁻⁶ cm/s; in the series “in vitro [2]”, 3.3 ×10⁻⁶ cm/s.

Turning to `CCN1CCCC1CNC(=O)c1cc(S(N)(=O)=O)ccc1OC` (stereo not shown) [Sulpiride, sulpiride], the Papp A→B at 60 min in “in vitro [2]” was 1.45 ×10⁻⁶ cm/s.

On to `C=CC[C@@H]1/C=C(\C)C[C@H](C)C[C@H](OC)[C@H]2O[C@@](O)(C(=O)C(=O)N3CCCC[C@H]3C(=O)O[C@H](/C(C)=C/[C@@H]3CC[C@@H](O)[C@H](OC)C3)[C@H](C)[C@@H](O)CC1=O)[C@H](C)C[C@@H]2OC` [Tacrolimus, tacrolimus], for which, in series [3] (setting [6]), the Fa · Fg/100 is 0.136. Also, the Papp A→B at 60 min in the series “in vitro [1]” came to 12.3 ×10⁻⁶ cm/s; in the series “in vitro [2]”, 14.3 ×10⁻⁶ cm/s.

lucifer yellow: the Fa · Fg/100 in series [3] (in vivo) was 0. Moreover, the apical-to-basolateral permeability (Papp A→B) in the series with Caco-2 cells amounted to 0.06 ×10⁻⁶ cm/s; in series [5], 0.3 ×10⁻⁶ cm/s.

The record behind these values is patent US12054746B2, “Method for inducing differentiation of pluripotent stem cells into intestinal epithelial cells” (PUBLIC UNIVERSITY CORPORATION NAGOYA CITY UNIVERSITY, priority 2018, dated 2024).
